Laboratory results published in the supplement of paper PMC10307832.

How the values were obtained:
Assay in all cases: relative viability (nuclei count vs DMSO), 5 days (fraction); higher = more cells survive
[1] = compound: COc1cc2/c(=N/c3ccc(Br)cc3F)nc[nH]c2cc1OCC1CCN(C)CC1 [Vandetanib] + Nc1nc2[nH]cc(CCc3ccc(C(=O)N[C@@H](CCC(=O)O)C(=O)O)cc3)c2c(=O)[nH]1 [Pemetrexed] (partner 0.2 µM)
Procedure, shortened: (§1)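 The day after seeding in 1536-well plates, lung cancer cell lines were treated by pin tool with a single drug, or with a fixed anchor-drug dose together with five library-drug doses (not always all listed) in √10 steps. After 5 days, a combined fix-and-stain solution (final 0.05% Triton X-100, 1% formaldehyde, 1 ug/ml Hoechst) was added. Nuclei counted on 4× images gave relative viability as treated counts over vehicle counts, reported as the median of duplicate plates.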

[2] = compound: C#Cc1cccc(Nc2ncnc3cc(OC)c(OCCCCCCC(=O)NO)cc23)c1 [CUDC-101] + Cc1nc(Nc2ncc(C(=O)Nc3c(C)cccc3Cl)s2)cc(N2CCN(CCO)CC2)n1 [Dasatinib] (partner 0.075 µM)
Procedure, shortened: as §1

[3] = compound: C1=CC=C2C(=C1)N=C(S2)C(C#N)C3=NC(=NC=C3)NCCC4=CN=CC=C4 + NC(=O)Nc1cc(-c2cccc(F)c2)sc1C(=O)N[C@H]1CCCNC1 [AZD7762] (partner 0.2 µM)
Procedure, shortened: as §1

[4] = compound: C1=CC=C2C(=C1)N=C(S2)C(C#N)C3=NC(=NC=C3)NCCC4=CN=CC=C4 + CC1(C)CCC(c2ccc(Cl)cc2)=C(CN2CCN(c3ccc(C(=O)NS(=O)(=O)c4ccc(N[C@H](CCN5CCOCC5)CSc5ccccc5)c(S(=O)(=O)C(F)(F)F)c4)cc3)CC2)C1 [Navitoclax] (partner 0.5 µM)
Procedure, shortened: as §1

Cell Line | relative viability ([1]; first compound 0.02 µM) | relative viability ([1]; first compound 0.06325 µM) | relative viability ([1]; first compound 0.2 µM) | relative viability ([1]; first compound 0.6325 µM) | relative viability ([1]; first compound 2 µM) | relative viability ([2]; first compound 0.01 µM) | relative viability ([2]; first compound 0.03162 µM) | relative viability ([2]; first compound 0.1 µM) | relative viability ([2]; first compound 0.3162 µM) | relative viability ([2]; first compound 1 µM) | relative viability ([3]; first compound 0.005 µM) | relative viability ([3]; first compound 0.01581 µM) | relative viability ([3]; first compound 0.05 µM) | relative viability ([3]; first compound 0.1581 µM) | relative viability ([3]; first compound 0.5 µM) | relative viability ([4]; first compound 0.005 µM) | relative viability ([4]; first compound 0.01581 µM) | relative viability ([4]; first compound 0.05 µM) | relative viability ([4]; first compound 0.1581 µM) | relative viability ([4]; first compound 0.5 µM)
NCI-H3122 | 0.192 | 0.196 | 0.201 | 0.202 | 0.208 | 0.82 | 0.867 | 0.798 | 0.783 | 0.454 | 0.975 | 1.16 | 0.96 | 1 | 1 | 0.935 | 1.04 | 0.984 | 1.04 | 1.01
NCI-H1651 | 0.579 | 0.583 | 0.555 | 0.5 | 0.505 | 0.378 | 0.335 | 0.434 | 0.39 | 0.384 | 0.428 | 0.463 | 0.533 | 0.509 | 0.471 | 0.9 | 1.08 | 0.95 | 1.11 | 1.17
NCI-H1355 | 1.03 | 0.994 | 1.05 | 0.985 | 1.06 | 0.747 | 0.672 | 0.717 | 0.741 | 0.523 | 0.702 | 0.698 | 0.675 | 0.967 | 0.559 | 0.975 | 0.959 | 0.906 | 1.03 | 0.975
NCI-H596 | 0.476 | 0.565 | 0.427 | 0.52 | 0.469 | 0.666 | 0.603 | 0.601 | 0.604 | 0.588 | 0.985 | 1.31 | 1 | 1.2 | 1.09 | 0.913 | 1.08 | 0.893 | 1.18 | 0.953
NCI-H23 | 0.605 | 0.655 | 0.634 | 0.631 | 0.666 | 0.777 | 0.795 | 0.826 | 0.856 | 0.733 | – | 0.239 | 0.254 | 0.175 | 0.249 | – | 0.958 | 0.728 | 0.959 | 0.958
HCC-366 | 0.128 | 0.149 | 0.155 | 0.17 | 0.176 | 0.631 | 0.632 | 0.6 | 0.715 | 0.526 | 0.199 | 0.254 | 0.288 | 0.279 | 0.129 | 0.853 | 0.998 | 1.04 | 1.28 | 0.98
NCI-H2126 | 0.658 | 0.632 | 0.715 | 0.669 | 0.651 | 0.7 | 0.588 | 0.612 | 0.579 | 0.481 | 0.969 | 1.06 | 1.04 | 1.07 | 0.974 | 0.91 | 0.913 | 0.782 | 0.831 | 0.842
LU99A | 0.172 | 0.191 | 0.197 | 0.21 | 0.187 | 0.596 | 0.508 | 0.507 | 0.64 | 0.432 | 0.444 | 0.469 | – | 0.343 | 0.262 | 0.691 | 0.968 | 0.777 | 0.948 | 0.866
